From US12692302B2, “Uses of IL-13 antagonists for treating atopic dermatitis” (Genentech, Inc., priority 2016, dated 2026)

System: patients with persistent moderate to severe atopic dermatitis inadequately controlled by TCS
Experiment: Clinical Study I (phase II, lebrikizumab + TCS vs placebo + TCS): efficacy outcomes
Type: in vivo, human
Conditions: for Mean % Change in % BSA Affected / Mean % Change in EASI / Mean % Change in Pruritus VAS / Mean % Change in SCORAD / Mean % Change in Sleep VAS / Mean Absolute Change in IGA: screening to baseline (2-week TCS run-in, before study drug)
Experimental: Clinical Study I was a phase II, randomized, double-blind, placebo-controlled study to evaluate the safety and efficacy of lebrikizumab in patients (age 18-75) with persistent moderate to severe atopic dermatitis that is inadequately controlled by topical corticosteroids (TCS). In this Study, lebrikizumab was tested in combination with TCS.
The inclusion criteria included the following: age 18 to 75 years; AD diagnosed by the Hanifin/Rajka criteria and that had been present for at least 1 year at screening; moderate to severe AD as graded by the Rajka/Langeland criteria at screening; history of inadequate response to a 1 month (within the 3 months prior to the screening visit) treatment regimen of at least daily TCS and regular emollient for treatment of AD; EASI score 14 at screening and end of the run-in period (Visit 3), IGA score 3 (5-point scale) at screening and end of the run-in period (Visit 3); AD involvement of 10% body surface area (BSA) at screening; and Pruritus VAS score (measured as part of the SCORAD) of 3 at screening.
Run-in Period. Following the screening visit, eligible patients entered a 2-week run-in period (Days −14 to −1) during which a protocol-specified topical therapy regimen was initiated. On the first day of the run-in period (Day −14) patients received TCS for use throughout the run-in period. Patients were required to apply the following topical therapy regimen daily: emollient to all xerotic skin surfaces, at least once daily; TCS cream consisting of medium potency TCS (triamcinolone acetonide 0.1%), two times per day, only to all active skin lesions.
Treatment Period. […] The plan was to randomize approximately 200 patients (1:1:1:1) to one of the following four treatment groups (see FIG. 1): (1) Group 1: lebrikizumab 250 mg administered subcutaneously (SC) single dose (Day 1) followed by 2 placebo doses (at Week 4 and at Week 8) for a total of 3 doses+TCS cream; (2) Group 2: lebrikizumab 125 mg SC single dose (Day 1) followed by 2 placebo doses (Week 4 and Week 8) for a total of 3 doses+TCS cream; (3) Group 3: lebrikizumab 125 mg SC every 4 weeks (Q4W) for a total of 3 doses+TCS cream; and (4) Group 4: placebo SC Q4W for a total of 3 doses+TCS cream. Three active doses were included to characterize both exposure-response relationships and dosing frequency requirements.
Patients randomized to these four study treatment groups received study drug (lebrikizumab or placebo SC) in combination with TCS. Throughout the 12-week treatment period these patients continued to apply emollient at least once daily and triamcinolone acetonide 0.1% cream as described in the run-in period (two times per day to all active skin lesions on the body). […] Patients recorded their use of topical creams and responded to PRO-related questions using a hand held eDiary throughout the treatment period. At each study visit the patient was required to bring their TCS containers to the study site to be weighed.
Efficacy Outcome Measures. The primary efficacy outcome measure was the percentage of patients achieving EASI-50 (a 50% reduction in EASI score from baseline) at Week 12. […]

[1] = 125 mg single dose + TCS BID (n = 52), Week 12
[2] = 250 mg single dose + TCS BID (n = 53), Week 12

lebrikizumab: monoclonal humanized anti-IL-13 IgG4 antibody; heavy chain SEQ ID NO: 11, light chain SEQ ID NO: 12; formulated at 125 mg/mL in prefilled syringe
% change from baseline in ADIQ, placebo-corrected change [1]: −4.9%
% change from baseline in Pruritus VAS (from SCORAD), mean [1]: −34.92%
% change from baseline in Pruritus VAS (from SCORAD), placebo-corrected change [1]: −7.38%
% change from baseline in Sleep Loss VAS (from SCORAD), mean [1]: −53.1%
% change from baseline in Sleep Loss VAS (from SCORAD), placebo-corrected change [1]: −30.6%
DLQI, % change from baseline, adjusted mean [1]: −34.33%
DLQI, % change from baseline, Δ vs placebo [1]: −0.76%
SCORAD score % change from baseline, adjusted mean [1]: −38.7%
SCORAD score % change from baseline, Δ vs placebo [1]: −3.3%
Total % BSA affected, % change from baseline, adjusted mean [1]: −45.2%
Total % BSA affected, % change from baseline, Δ vs placebo [1]: 2.2%
Change from baseline Pruritus VAS, mean % change (250 mg SD + TCS, Week 20): −30.25%
Change from baseline Pruritus VAS, placebo-corrected differences (250 mg SD + TCS, Week 20): −8.79%
Change from baseline in EASI, mean % change (250 mg SD + TCS, Week 20): −55.9%
Change from baseline in EASI, placebo-corrected differences (250 mg SD + TCS, Week 20): −1.88%
Change from baseline in the % BSA affected, mean % change (250 mg SD + TCS, Week 20): −46.4%
Change from baseline in the % BSA affected, placebo-corrected differences (250 mg SD + TCS, Week 20): 5.56%
Patients maintaining EASI-50 response at Weeks 12 and 20, % (250 mg SD + TCS, Week 20): (78.4) %
Patients maintaining EASI-50 response at Weeks 12 and 20, placebo-corrected differences (250 mg SD + TCS, Week 20): 5.65%
Patients maintaining EASI-75 response at Weeks 12 and 20, % (250 mg SD + TCS, Week 20): (61.5) %
Patients maintaining EASI-75 response at Weeks 12 and 20, placebo-corrected differences (250 mg SD + TCS, Week 20): −5.13%
Patients maintaining IGA 0/1 response at Weeks 12 and 20, % (250 mg SD + TCS, Week 20): (60.0) %
Patients maintaining IGA 0/1 response at Weeks 12 and 20, placebo-corrected differences (250 mg SD + TCS, Week 20): 0%
Patients maintaining SCORAD-50 response at Weeks 12 and 20, % (250 mg SD + TCS, Week 20): (64.0) %
Patients maintaining SCORAD-50 response at Weeks 12 and 20, placebo-corrected differences (250 mg SD + TCS, Week 20): −14.60%
% Patients achieving EASI-50 [2]: (69.8) %
% Patients achieving EASI-50, placebo-corrected changes [2]: 7.6%
% Patients achieving EASI-75 [2]: (49.1) %
% Patients achieving EASI-75, placebo-corrected changes [2]: 15.1%
% Patients achieving IGA 0/1 [2]: (28.3) %
% Patients achieving IGA 0/1, placebo-corrected change [2]: 9.4%
% Patients achieving SCORAD-50 [2]: 47.2%
% Patients achieving SCORAD-50, placebo-corrected change [2]: 20.8%
% Patients achieving SCORAD-75 [2]: (11.3) %
% change from baseline in AD Specific health-related QoL - ADIQ, mean [2]: −30.8%
% change from baseline in ADIQ, placebo-corrected change [2]: −1.8%
% change from baseline in Pruritus VAS (from SCORAD), mean [2]: −32.82%
% change from baseline in Pruritus VAS (from SCORAD), placebo-corrected change [2]: −5.28%
% change from baseline in Sleep Loss VAS (from SCORAD), mean [2]: −47.2%
% change from baseline in Sleep Loss VAS (from SCORAD), placebo-corrected change [2]: −24.6%
DLQI, % change from baseline, adjusted mean [2]: −40.67%
DLQI, % change from baseline, Δ vs placebo [2]: −7.09%
SCORAD score % change from baseline, adjusted mean [2]: −42.6%
SCORAD score % change from baseline, Δ vs placebo [2]: −7.2%
Total % BSA affected, % change from baseline, adjusted mean [2]: −38.6%
Total % BSA affected, % change from baseline, Δ vs placebo [2]: 8.8%
% Patients achieving SCORAD-50 (250 mg single dose + TCS BID (n = 53), Week 12, listed as Lebri): (47.2) %
Mean % Change in % BSA Affected (125 mg Q4W group (n = 51)): −9.3%
Mean % Change in EASI (125 mg Q4W group (n = 51)): −9.1%
Mean % Change in Pruritus VAS (125 mg Q4W group (n = 51)): −15.2%
Mean % Change in SCORAD (125 mg Q4W group (n = 51)): −7.7%
Mean % Change in Sleep VAS (125 mg Q4W group (n = 51)): −12.9%
Mean Absolute Change in IGA (125 mg Q4W group (n = 51)): −0.14
Mean % Change in % BSA Affected (125 mg SD group (n = 52)): −17.1%
Mean % Change in EASI (125 mg SD group (n = 52)): −14.3%
Mean % Change in Pruritus VAS (125 mg SD group (n = 52)): −23.8%
Mean % Change in SCORAD (125 mg SD group (n = 52)): −12.2%
Mean % Change in Sleep VAS (125 mg SD group (n = 52)): −29.0%
Mean Absolute Change in IGA (125 mg SD group (n = 52)): −0.21
Mean % Change in % BSA Affected (250 mg SD group (n = 53)): −4.3%
Mean % Change in EASI (250 mg SD group (n = 53)): −10.2%
Mean % Change in Pruritus VAS (250 mg SD group (n = 53)): −15.5%
Mean % Change in SCORAD (250 mg SD group (n = 53)): −9.9%
Mean % Change in Sleep VAS (250 mg SD group (n = 53)): −8.1%
Mean Absolute Change in IGA (250 mg SD group (n = 53)): −0.17
